Each block holds one molecule with its values, some of them ahead of it. Where a SMILES comes first, the peptide text is derived from it.
How the values were obtained:
[1] = cited from earlier work; for pKa at 25° C. (pKa1): Table 1, pKa1; for pKa1 of acid used to prepare AQ4N disalt: value of the free acid, from IUPAC Handbook of Pharmaceutical Salts; for pKa at 25° C.: Table 1, pKa index not given
[2] = pH of AQ4N salts in aqueous solution; assay type: physicochemical; conditions: 1.4 mM in water; in Table 4 the label is the acid whose AQ4N disalt was measured
Protocol: Stock solutions of individual AQ4N salts were prepared by transferring about 1 mg, accurately weighed, and diluting with water to obtain solutions of 1.4 mM. The solution was vortexed for 3 min using a Fisons WhirlMixer™ (Loughborough, Leicestershire, UK). All AQ4N salt solutions were prepared on the same day as determination of the pH value of the solutions, which was done using a digital pH meter (calibrated at 21±1° C. with standard buffers of pH 7.00 and 4.00 from BDH (UK).

[3] = Degradation of AQ4N dihydrochloride in solution at 40° C.: accumulation of AQMN (HPLC); assay type: physicochemical; conditions: for AQMN increase per day: 14 days, % w.r.t. AQ4N
Protocol: The degradation of AQ4N was investigated using 5 mg/ml solutions of AQ4N at a pH of 2.4, 4.5 and 6.8, which equated to water, 20 mM sodium acetate buffer and 20 mM sodium orthophosphate buffer, respectively. The primary degradation pathway of AQ4N is its conversion to AQMN. The increase in AQMN concentration in 5 mg/ml solutions incubated at 40° C. over an intermediate time period (14 days) is shown in FIG. 3.
The effect of pH on the stability of AQ4N was determined by investigating AQ4N degradation in different solutions. The solutions chosen were again distilled water, 20 mM sodium acetate buffer (pH=4) and 20 mM sodium phosphate buffer (pH=7). After preparation of the 5 mg/ml AQ4N buffered solutions the pH was corrected to the required pH of the buffer. The final pHs were 2.4, 4.5 and 6.8 for the distilled water, 20 mM sodium acetate buffer and 20 mM sodium phosphate buffer, respectively. The samples were incubated at 40° C. and sampled at regular intervals. Assay was carried out by sample dilution followed by HPLC analysis.

Molecule: CC(CC(=O)O)(CC(=O)O)C(=O)O [2-Methylpropane-1,2,3-triscarboxylic]
- pKa at 25° C. (pKa1) [1]: 3.53 (pKa1)

- measured pH of AQ4N di-salt solutions (1.4 mM) [2]: 2.5
Molecule: O=S(=O)(O)c1ccccc1 [Benzenesulfonic, benzenesulfonic acid]
- pKa1 of acid used to prepare AQ4N disalt [1]: −2.5

- measured pH of AQ4N di-salt solutions (1.4 mM) [2]: 3.8
Molecule: AQ4N di-pimelate [Example 13]

Molecule: O=C(O)c1ccccc1C(=O)O [Phthalic]
- pKa at 25° C. [1]: 2.90

Molecule: O=C(O)c1cc(C(=O)O)c(C(=O)O)c(C(=O)O)c1C(=O)O [Benzenepentacarboxylic]
- pKa at 25° C. (pKa1) [1]: 2.34 (pKa1)

Molecule: O=C(O)CC(O)C(=O)O (centres unmarked) [Malic]
- pKa at 25° C. (pKa1) [1]: 3.40 (pKa1)
- pKa at 25° C. (pKa2) ([1]; Table 1, pKa2): 5.05 (pKa2)

Molecule: C/C=C/C=C/C(=O)O [Sorbic]
- pKa at 25° C. [1]: 4.76

Molecule: AQ4N di-benzenesulfonate [Example 6]
- measured pH of AQ4N di-salt solutions (1.4 mM) [2]: 2.4

Molecule: C=C(CC(=O)O)C(=O)O [Itaconic]
- pKa at 25° C. (pKa1) [1]: 3.84 (pKa1)

- measured pH of AQ4N di-salt solutions (1.4 mM) [2]: 2.8
Molecule: O=C(O)C(O)C(O)C(=O)O (centres unmarked) [Tartaric, tartaric acid]

Molecule: AQ4N di-dichloroacetate [Example 7]
- measured pH of AQ4N di-salt solutions (1.4 mM) [2]: 2.5

- measured pH of AQ4N di-salt solutions (1.4 mM) [2]: 3.5
Molecule: CC(O)C(=O)O (racemic) [Lactic, Lactic acid]

- measured pH of AQ4N di-salt solutions (1.4 mM) [2]: 2.8
Molecule: O=C(O)CC(=O)O [Malonic, malonic acid]

Molecule: O=C(O)C(Cl)Cl [Dichloroacetic, dichloroacetic acid]
- measured pH of AQ4N di-salt solutions (1.4 mM) [2]: 2.4

Molecule: Cl [Hydrochloric, hydrochloric acid]
- measured pH of AQ4N di-salt solutions (1.4 mM) [2]: 2.4

- measured pH of AQ4N di-salt solutions (1.4 mM) [2]: 2.6
Molecule: O=C(O)/C=C\C(=O)O [Maleic, maleic acid]

Molecule: O=C(O)c1cccc(C(=O)O)c1C(=O)O [Benzene-1,2,3-tricarboxylic (hemimellitic)]
- pKa at 25° C. (pKa1) [1]: 2.98 (pKa1)

- measured pH of AQ4N di-salt solutions (1.4 mM) [2]: 3.8
Molecule: O=C(O)CCCCCC(=O)O [Pimelic, pimelic acid]
- pKa at 25° C. [1]: 4.48
- pKa1 of acid used to prepare AQ4N disalt [1]: 4.48

Molecule: NCC(=O)NCC(=O)O [Glycylglycine] (H-Gly-Gly-OH)
- pKa at 25° C. [1]: 3.06

Molecule: COc1cc2c(cc1OC)[C@@]13CCN4CC5=CCO[C@H]6CC(=O)N2[C@H]1[C@H]6[C@H]5C[C@H]43.O.O.O.O [Brucine tetrahydrate]
- pKa at 25° C. (pKa1) [1]: 2.30 (pKa1)

- measured pH of AQ4N di-salt solutions (1.4 mM) [2]: 3.3
Molecule: O=C(O)CC(O)(CC(=O)O)C(=O)O [Citric, citric acid]

Molecule: O=C1CC(=O)NC(=O)N1 [Barbituric]
- pKa at 25° C. [1]: 3.98

- AQMN increase per day ([3]; 20 mM sodium acetate buffer, pH 4.5, 5 mg/ml solution): 0.19%
- AQMN increase per day ([3]; 20 mM sodium orthophosphate buffer (PO4), pH 6.8, 5 mg/ml solution): 0.02%
- AQMN increase per day ([3]; H2O, pH 2.4, 5 mg/ml solution): 0.84%
- AQMN increase per month ([3]; phosphate buffer, 5 mg/ml solution, 63 days): 0.6%
- measured pH of AQ4N di-salt solutions (1.4 mM) [2]: 2.4
Molecule: C[N+](C)([O-])CCNc1ccc(NCC[N+](C)(C)[O-])c2c1C(=O)c1c(O)ccc(O)c1C2=O.Cl.Cl [AQ4N dihydrochloride]

Molecule: OCCN(CCO)C(CO)(CO)CO [Bis(2-hydroxyethyl)iminotris(hydroxymethyl)methane]
- pKa at 25° C. [1]: 6.46

Molecule: O=C(O)c1cc(C(=O)O)cc(C(=O)O)c1 [Benzene-1,3,5-tricarboxylic (trimesic)]
- pKa at 25° C. (pKa1) [1]: 3.16 (pKa1)

- measured pH of AQ4N di-salt solutions (1.4 mM) [2]: 3.8
Molecule: CC(=O)O [Acetic, acetic acid]

- measured pH of AQ4N di-salt solutions (1.4 mM) [2]: 3.8
Molecule: AQ4N di-acetate [Example 14]
